Patent US20070128657A1, “Molecular libraries” (priority 2002, published 2007)

What was measured:
Assay type in all cases: cell-based, Homo sapiens (human)
[1] = tested on: SW480.7 cells; test: Cell proliferation status / death after ligand transfection, SW480.7; conditions: SW480.7, 15 days, without puromycin selection
Procedure: (§1) The purpose of this experiment is to confirm that the selected peptide ligand indeed restores the mutated p53 protein to the wild-type p53 function in SW480.7 cells. […] There might be a chance that the cells got the resistance with, or even without the help of the selected ligand via mechanisms other than p53-transactivated p21 promoter. Thus we should make sure that the mutant p53 in SW480.7 cells functions as wild-type p53 only if the selected ligand is added. […] The selected peptide ligand can be further verified only if it can induce cell cycle arrest or apoptosis in SW480.7 cells but neither in U-2 OS nor in Saos2 cells, which means the specificity of the selected ligand to p53 mutation in SW480.7. • 2—We also tested the transcription levels of genes that are only transactivated by wild-type p53.
(§2) Cells SW480.7, U-2OS, and Sa-os2 were transfected with peptide ligand and pCEP4 parallelly using the calcium phosphate method.
(§3) After transfection, cells were cultured without drug selection and diluted at the ratio of 1:100 every five days. Cell proliferation status was closely observed until ligand transfected SW480.7 cells died out. Life staining with 0.4% trypan blue was applied to determine the death of the cells. Dead cells can not exclude the dye thus were stained blue. Living cells can pump the dye outside thus were not stained. […]

[2] = tested on: U-2 OS (WTp53); test: Cell proliferation status after ligand transfection, U-2 OS; conditions: U2-OS, without puromycin selection
Procedure: as §1, §2, §3

[3] = tested on: Saos2 cells (no p53 copy); test: Cell proliferation status after ligand transfection, Saos-2; conditions: Saos-2, without puromycin selection
Procedure: as §1, §2, §3

[4] = tested on: R273H/P309S p53 mutant; test: RT-PCR of genes transactivated by wild-type p53 in ligand transfected SW480.7 cells
Procedure: as §1
P53 (wild-type) regulates different cell responses via transactivating different downstream genes. For example p53 causes cell cycle arrest at G1 phase by transactivation of p21 gene. While p53 causes cell arrest at G2 phase by transactivation of […]. Apoptosis is due to p53 transactivation of […] and/or Bax gene. Thus we measured p21, CD95, and 14-3-3σ gene transcription levels by RT PCR, to reveal the capability of the selected peptide ligand in restoring the wild-type p53 transactivation of the downstream genes. The expression level of β-actin was measured as a control. β-Actin transcription level was used to normalize total mRNA amount between samples for comparison owing to its constitutive expression in all cells.
After transfection, cells were cultured without drug selection and diluted at the ratio of 1:100 every five days. Cell proliferation status was closely observed until ligand transfected SW480.7 cells died out. Life staining with 0.4% trypan blue was applied to determine the death of the cells. Dead cells can not exclude the dye thus were stained blue. Living cells can pump the dye outside thus were not stained. Total RNA was collected from two wells of one ligand transfected SW480.7 plate and one pCEP4 transfected SW480.7 plate each day on day 0, day 1, and day 2 after transfection. Thus RNA samples were harvested as SW480.7/Ligand-0 day, SW480.7/Ligand-1 day, SW480.7/Ligand-2 day, SW480.7/pCEP4-0 day, SW480.7/pCEP4-1 day, SW480.7/pCEP4-2 day. Protocol for total RNA extraction by TRIZOL® Reagent was according to that given by Life Technology:
cDNA Amplification by PCR
8. Electrophoreses 5 μl of each PCR reaction alongside 0.1 μg of 1-kb DNA ladder on a 1.2% agarose/EtBr gel in 1×TBE buffer.

[5] = ligand transfected SW480.7 compared with empty pCEP4 transfected SW480.7 cells

M G W C T (MGWCT; Peptide sequence translated from DNA extracted from library-transfected cells.) [ligand]
Cell growth status after transfection of the ligand [1]: could no longer attach to the wall and died | Cell growth status after transfection of the ligand [2]: growing well | Cell growth status after transfection of the ligand [3]: growing well | Restoration of wild type p53 function (RT-PCR analysis of mRNA) ([4]; ligand transfected SW480.7 cells): can reestablish wild type p53 function | mRNA level of 14-3-3 gene [4, 5]: Higher | mRNA level of CD95 gene [4, 5]: Higher | mRNA level of p21 (WAF1/Cip1) gene [4, 5]: Higher
